Test results as given in patent publication US11541120B2, “Phosphonium-based ionic drug conjugates” (Anthos Partners, LP, priority 2017, dated 2023).
In brackets after ≈: the same amount, converted by molar mass.

System: not listed separately
Experiment: Water solubility of PBICs
Type: physicochemical
Conditions: not given
Method: (§1) The water solubilties and partition coefficients of the PBICs were measured and compared to the values of the therapeutic agent by itself. To determine the partition coefficient Log D7.4 data provided in Table 2, a solution of the compound or conjugate was prepared in aqueous phosphate buffered saline (PBS) at a concentration of 100 micromolar (μM). The PBS solution was shaken with octanol. Thus, in Table 2, Log D7.4=Log (concentration in octanol/concentration in aqueous phosphate buffered saline (PBS))=Log[(initial concentration in PBS−final concentration in PBS)/final concentration in PBS], as the concentration in octanol is derived from the loss of compound from the aqueous PBS layer.

| Compound | Water solubility, Drug |
| --- | --- |
| CC(C)Cc1ccc(C(C)C(=O)O)cc1 (centres unmarked) [Ibuprofen, reference compound] | 21.0 mg/L |

Same assay, conditions: MitoQ conjugate of the drug

| Compound | Water solubility, MitoQ Conjugate |
| --- | --- |
| CC(C)Cc1ccc(C(C)C(=O)[O-])cc1.COC1=C(OC)C(=O)C(CCCCCCCCCC[P+](c2ccccc2)(c2ccccc2)c2ccccc2)=C(C)C1=O [Ibuprofen-MitoQ, Ibuprofen MitoQ conjugate] | Insoluble |

Same assay, conditions: TPMP conjugate of the drug

| Compound | Water solubility, TPMP Conjugate |
| --- | --- |
| Latanoprost Acid-TPMP conjugate [Latanoprost TPMP Conjugate] | 2,187,777.8 mg/L |
| Captopril TPMP conjugate | 3,036,666.7 mg/L |
| Retinoic Acid-TPMP conjugate [Retinoic acid TPMP Conjugate] | 2,624,000.0 mg/L |
| racemic 3-Hydroxybutyric Acid-TPMP conjugate [3-hydroxybutyric acid TPMP Conjugate] | 4,332,500.0 mg/L |
| (R)-3-Hydroxybutyric Acid-TPMP conjugate [R-3-Hydroxybutyric acid TPMP Conjugate] | 2,867,500.0 mg/L |
| Diflunisal-TPMP conjugate [Diflunisal TPMP Conjugate] | 1,518,333.3 mg/L |
| Treprostinil TPMP conjugate | 2,558,000.0 mg/L |
| Indomethacin-TPMP conjugate [Indomethacin TPMP Conjugate] | 1,700,000.0 mg/L |
| Baclofen-TPMP conjugate [Baclofen TPMP Conjugate] | 13,500.0 mg/L |
| L-Thyroxine TPMP conjugate [Levothyroxine TPMP Conjugate] | <400 mg/L |
| Travoprost Acid-TPMP conjugate [Travoprost TPMP Conjugate] | 1,921,666.7 mg/L |
| Deoxycholic acid TPMP conjugate | 2,518,000.0 mg/L |

Same assay, conditions: parent drug by itself

| Compound | Water solubility, Drug |
| --- | --- |
| C[C@H](CCC(=O)O)[C@H]1CC[C@H]2[C@@H]3CC[C@@H]4C[C@H](O)CC[C@]4(C)[C@H]3C[C@H](O)[C@]12C [Deoxycholic acid] | 43.6 mg/L |
| CC1=C(/C=C/C(C)=C/C=C/C(C)=C/C(=O)O)C(C)(C)CCC1 [Retinoic acid] | 1,000.0 mg/L |

Same assay, conditions: water; parent drug by itself

| Compound | solubility |
| --- | --- |
| COc1ccc2c(c1)c(CC(=O)O)c(C)n2C(=O)c1ccc(Cl)cc1 [Indomethacin] | 0.9 µg/mL (≈ 0.00252 mM) |
| NCC(CC(=O)O)c1ccc(Cl)cc1 (centres unmarked) [Baclofen] | 700 µg/mL (≈ 3.28 mM) |
| CC(O)CC(=O)O (racemic) [3-hydroxybutyric acid] | 444000 µg/mL (≈ 4260 mM) |
| C[C@@H](O)CC(=O)O [R-3-Hydroxybutyric acid, (R)-3-hydroxybutyric acid] | 444000 µg/mL (≈ 4260 mM) |
| CC(C)OC(=O)CCC/C=C\C[C@@H]1[C@@H](CC[C@@H](O)CCc2ccccc2)[C@H](O)C[C@@H]1O [Latanoprost] | 8 µg/mL (≈ 0.0185 mM) |
| C[C@H](CS)C(=O)N1CCC[C@H]1C(=O)O [Captopril] | 160000 µg/mL (≈ 736 mM) |
| CCCCC[C@H](O)CC[C@@H]1[C@H]2Cc3cccc(OCC(=O)O)c3C[C@H]2C[C@H]1O [Treprostinil] | 7 µg/mL (≈ 0.0179 mM) |
| O=C(O)c1cc(/N=N/c2ccc(S(=O)(=O)Nc3ccccn3)cc2)ccc1O [Sulfasalazine] | 1 µg/mL (≈ 0.00251 mM) |
| N[C@@H](Cc1cc(I)c(Oc2cc(I)c(O)c(I)c2)c(I)c1)C(=O)O [Levothyroxine] | 0.2 µg/mL (≈ 0.000257 mM) |
| CC(C)OC(=O)CCC/C=C\C[C@@H]1[C@@H](/C=C/[C@@H](O)COc2cccc(C(F)(F)F)c2)[C@H](O)C[C@@H]1O [Travoprost] | 7 µg/mL (≈ 0.014 mM) |
| O=C(O)c1cc(-c2ccc(F)cc2F)ccc1O [Diflunisal] | 14.5 µg/mL (≈ 0.058 mM) |

System: Caco-2
Experiment: Caco-2 cell permeability
Conditions: No Inhibitor

| Compound | Mean (B-A/A-B) Efflux Ratio | Mean Papp A-B | Mean Papp B-A |
| --- | --- | --- | --- |
| Obeticholic acid-TPMP | 0.103 | 20.5 10^−6 cm/s | 2.11 10^−6 cm/s |
| CCC1C(O)C2C3CCC(C(C)CCC(=O)[O-])C3(C)CCC2C2(C)CCC(O)CC12.COC1=C(OC)C(=O)C(CCCCCCCCCC[P+](c2ccccc2)(c2ccccc2)c2ccccc2)=C(C)C1=O [Obeticholic acid-MitoQ] | 0.0872 | 18.9 10^−6 cm/s | 1.65 10^−6 cm/s |
| CC(C)Cc1ccc(C(C)C(=O)[O-])cc1.COC1=C(OC)C(=O)C(CCCCCCCCCC[P+](c2ccccc2)(c2ccccc2)c2ccccc2)=C(C)C1=O [Ibuprofen-MitoQ, Ibuprofen MitoQ conjugate] | 0.467 | 52.1 10^−6 cm/s | 24.3 10^−6 cm/s |

System: not listed separately
Experiment: Caco-2 cell permeability
Conditions: human, Caco-2

| Compound | Papp A→B | Papp B→A | efflux ratio |
| --- | --- | --- | --- |
| O=C(O)Cc1ccccc1Nc1c(Cl)cccc1Cl [Diclofenac, reference compound] | 34.5 ×10⁻⁶ cm/s | 13.5 ×10⁻⁶ cm/s |  |
| CC[C@H]1[C@@H](O)[C@@H]2[C@H](CC[C@]3(C)[C@@H]([C@H](C)CCC(=O)O)CC[C@@H]23)[C@@]2(C)CC[C@@H](O)C[C@@H]12 [Obeticholic acid, reference compound] | 32.6 ×10⁻⁶ cm/s | 3.23 ×10⁻⁶ cm/s | 0.0989 |
| CC(C)Cc1ccc(C(C)C(=O)O)cc1 (centres unmarked) [Ibuprofen, reference compound] | 40.5 ×10⁻⁶ cm/s | 19 ×10⁻⁶ cm/s |  |

System: not listed separately
Experiment: Partition coefficient octanol/PBS (LogD7.4)
Type: physicochemical
Conditions: 100 μM in PBS shaken with octanol
Method: as §1

| Compound | (Conc. in octanol)/(Conc. in PBS) | LogD7.4 |
| --- | --- | --- |
| Obeticholic acid-TPMP | 1,182.39 | 3.07 |
| CCC1C(O)C2C3CCC(C(C)CCC(=O)[O-])C3(C)CCC2C2(C)CCC(O)CC12.COC1=C(OC)C(=O)C(CCCCCCCCCC[P+](c2ccccc2)(c2ccccc2)c2ccccc2)=C(C)C1=O [Obeticholic acid-MitoQ] | 624.00 | 2.80 |
| CC(C)Cc1ccc(C(C)C(=O)[O-])cc1.COC1=C(OC)C(=O)C(CCCCCCCCCC[P+](c2ccccc2)(c2ccccc2)c2ccccc2)=C(C)C1=O [Ibuprofen-MitoQ, Ibuprofen MitoQ conjugate] | 9.94 | 1.00 |

System: not given
Experiment: not given
Conditions: parent drug; cited from earlier work

| Compound | LogP (Reported) |
| --- | --- |
| CC[C@H]1[C@@H](O)[C@@H]2[C@H](CC[C@]3(C)[C@@H]([C@H](C)CCC(=O)O)CC[C@@H]23)[C@@]2(C)CC[C@@H](O)C[C@@H]12 [Obeticholic acid, reference compound] | 3.5 |
